Counter-ions that a name gives are not always drawn.
Tests used:
human S1P3 receptor = molecular target: T1, human S1P3 receptor (Homo sapiens, UniProt Q99500); assay: In vitro functional activity (agonism), CHO-human-S1P3-Aequorin assay; format: cell-based; conditions: for EC50: read-out: S1P3 pEC50 (converted)
T1 construct: cell line established at Solvay Pharmaceuticals; host or cells: CHO K1 (CHO/Gα16/AEQ/h-S1P3)
From the text: In Vitro Functional Activity (Agonism) on Human S1P3 Receptors
The CHO-human-S1P3-Aeqorin assay (CHO/Gα16/AEQ/h-S1P3) was established at Solvay Pharmaceuticals. The plasmid DNA coding for the S1P3 receptor (accession number in GenBank NM_005226 was purchased from UMR cDNA resource Centre (Rolla, Mo.). The pcDNA3.1/hS1P3 construct carrying the mitochondrially targeted apo-Aeqorin and Gα16 protein was transfected in CHO K1 cell-line.
(§1) Human-S1P3-Aequorin cells express mitochondrial targeted apo-Aequorin. Cells have to be loaded with coelanterazine, in order to reconstitute active Aequorin. After binding of agonists to the human S1P3 receptor the intracellular calcium concentration increases and binding of calcium to the apo-Aequorin/coelenterazine complex leads to an oxidation reaction of coelenterazine, which results in the production of apo-Aequorin, coelenteramide, CO2 and light (λmax 469 nm). This luminescent response is dependent on the agonist concentration. Luminescence is measured using the MicroBeta Jet (Perkin Elmer). Agonistic effects of compounds are expressed as pEC50. Compounds were tested at a 10 points half log concentration range, and 3 independent experiments were performed in single point's measurements.

human S1P5 receptor = molecular target: T2, human S1P5 receptor (Homo sapiens, UniProt Q9H228); assay: In vitro functional activity (agonism), CHO-human-S1P5-Aequorin assay; format: cell-based; conditions: for EC50: read-out: S1P5 pEC50 (converted)
T2 construct: host or cells: CHO (AequoScreen recombinant cell line, co-expressing mitochondrially targeted apo-aequorin)
From the text: In Vitro Functional Activity (Agonism) on Human S1P5 Receptors
as §1, with “The CHO-human-S1P5-Aeqorin assay was bought from Euroscreen, Brussels (Euroscreen, Technical dossier, Human Lysophospholid S1P5 (Edg8) receptor, DNA clone and CHO AequoScreen™ recombinant cell-line, catalog no: ES-593-A, September 2006). Human-S1P5-Aequorin” for “Human-S1P3-Aequorin”, “S1P5” for “S1P3”

T1 sequence (Q99500 whole entry): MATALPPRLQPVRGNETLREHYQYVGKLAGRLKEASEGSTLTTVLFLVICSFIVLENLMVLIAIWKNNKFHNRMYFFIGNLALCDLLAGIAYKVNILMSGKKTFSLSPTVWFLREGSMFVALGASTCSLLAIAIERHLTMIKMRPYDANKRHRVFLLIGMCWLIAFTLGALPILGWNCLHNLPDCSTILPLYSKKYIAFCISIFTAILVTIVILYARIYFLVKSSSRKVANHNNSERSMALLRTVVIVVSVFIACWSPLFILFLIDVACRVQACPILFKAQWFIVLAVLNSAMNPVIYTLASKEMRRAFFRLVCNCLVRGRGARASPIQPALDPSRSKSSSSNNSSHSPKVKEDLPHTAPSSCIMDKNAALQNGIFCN
T2 sequence (Q9H228 whole entry): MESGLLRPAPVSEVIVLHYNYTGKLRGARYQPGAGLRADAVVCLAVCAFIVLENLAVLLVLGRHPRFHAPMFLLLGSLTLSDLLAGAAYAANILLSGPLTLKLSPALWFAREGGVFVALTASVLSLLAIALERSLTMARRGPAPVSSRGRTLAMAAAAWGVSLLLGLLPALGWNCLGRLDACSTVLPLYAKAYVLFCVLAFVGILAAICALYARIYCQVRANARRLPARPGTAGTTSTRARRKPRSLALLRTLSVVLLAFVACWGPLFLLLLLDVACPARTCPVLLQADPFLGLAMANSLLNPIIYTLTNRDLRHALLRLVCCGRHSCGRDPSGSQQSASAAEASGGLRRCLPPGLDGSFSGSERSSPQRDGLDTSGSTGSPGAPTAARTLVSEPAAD

Compound	EC50 (human S1P3 receptor) [µM]	EC50 (human S1P5 receptor) [nM]	melting point [°C]	further results
O=C(O)CCN1CCOC(c2ccc(OCCCc3cccc(F)c3F)cc2)C1 (stereo not drawn) [Compound 174, 3-(2-{4-[3-(2,3-Difluoro-phenyl)-propoxy]-phenyl}-morpholin-4-yl)-propionic acid hydrochloride]	5.01	1580		
Cl.O=C(O)CCN1CCOC(c2ccc(OCc3c(F)cccc3Cl)cc2F)C1 (stereo not drawn)			189 to 190	
Cl.O=C(O)CCN1CCOC(c2ccc(OCc3ccccc3C(F)(F)F)c(Cl)c2)C1 (stereo not drawn)			199 to 201	
Cl.O=C(O)CCN1CCOC(c2ccc(OCc3c(Cl)cccc3OC(F)(F)F)cc2C(F)(F)F)C1 (stereo not drawn)			179 to 182	
O=C(O)CCN1CCOC(c2ccc(OC3CCc4ccccc43)cc2)C1 (stereo not drawn) [Compound 219, 3-{2-[4-(Indan-1-yloxy)-phenyl]-morpholin-4-yl}propionic acid]			124 to 129.5	
CC(C)c1cccc(Cl)c1COc1ccc(C2CN(CCC(=O)O)CCO2)c(C(F)(F)F)c1.Cl (stereo not drawn)			206 to 210	
CCc1cc(Cl)c(COc2ccc(C3CN(CCC(=O)O)CCO3)cc2)c(Cl)c1 (stereo not drawn) [Compound 164, 3-{2-[4-(2,6-Dichloro-4-ethyl-benzyloxy)-phenyl]-morpholin-4-yl}-propionic acid hydrochloride]	2	316		
O=C(O)CCN1CCOC(c2ccc(OCC3CCCCC3)cc2)C1 (stereo not drawn) [Compound 24, 3-[2-(4-Cyclohexylmethoxy-phenyl)-morpholin-4-yl]-propionic acid trifluoroacetic acid salt]	> 31.6	631		
Cl.O=C(O)CCN1CCOC(c2cccc(OCc3c(Cl)cccc3Cl)c2)C1 (stereo not drawn)			229 to 230	
CCCCCCCCSc1ccc(C2CN(CCC(=O)O)CCO2)cc1 (stereo not drawn) [Compound 204, 3-[2-(4-Octylsulfanyl-phenyl)-morpholin-4-yl]-propionic acid Hydrochloride]		398		
Cl.O=C(O)CCN1CCOC(c2ccc(OCc3c(Cl)cccc3C(F)(F)F)cc2C(F)(F)F)C1 (stereo not drawn)			200 to 201	
Cl.O=C(O)CCN1CCOC(c2ccc(OCc3ccccc3C(F)(F)F)cc2F)C1 (stereo not drawn)			201 to 201.5	
Cl.O=C(O)CCN1CCOC(c2ccc(OCc3c(Cl)cccc3Cl)cc2C(F)(F)F)C1 (stereo not drawn)			195 to 197	
CCc1cccc(Cl)c1COc1ccc(C2CN(CCC(=O)O)CCO2)c(C(F)(F)F)c1.Cl (stereo not drawn)			214 to 215	
CCCCCCCCOc1ccc(C2CN(CCP(=O)(O)O)CCO2)cc1 (stereo not drawn) [Compound 137, {2-[2-(4-Octyloxy-phenyl)-morpholin-4-yl]-ethyl}-phosphonic acid]	0.501	100		
Cl.O=C(O)CCN1CCOC(c2ccc(OCc3cccc(C(F)(F)F)c3)cc2C(F)(F)F)C1 (stereo not drawn)			209 to 211	
Cc1cc(OCc2cccc(Oc3ccccc3)c2)ccc1C1CN(CCC(=O)O)CCO1 (stereo not drawn) [Compound 92, 3-{2-[2-Methyl-4-(3-phenoxy-benzyloxy)-phenyl]-morpholin-4-yl}-propionic acid]	> 10	5010		
O=C(O)CCN1CCOC(c2ccc(OCc3c(Cl)cccc3Cl)cc2)C1 (single isomer, unassigned; (+)) [Compound 34a, (+)-3-{2-[4-(2,6-Dichloro-benzyloxy)-phenyl]-morpholin-4-yl}-propionic acid hydrochloride]	> 31.6	631		
Cc1cc(OCc2ccc3ccccc3c2)ccc1C1CN(CCC(=O)O)CCO1 (stereo not drawn) [Compound 76, 3-{2-[2-Methyl-4-(naphthalen-2-ylmethoxy)-phenyl]-morpholin-4-yl}-propionic acid]	> 10	2510		
CCCc1ncc(OCCCOc2ccc(C3CN(CCC(=O)O)CCO3)cc2)s1 (stereo not drawn) [Compound 3, 3-(2-{4-[3-(2-Propyl-thiazol-5-yloxy)-propoxy]-phenyl}-morpholin-4-yl)-propionic acid trifluoroacetic acid salt]	15.8	10000		
Cc1cc(OCc2ccc(C(C)(C)C)cc2)ccc1C1CN(CCC(=O)O)CCO1 (stereo not drawn) [Compound 127, 3-{2-[4-(4-tert-Butyl-benzyloxy)-2-methyl-phenyl]-morpholin-4-yl}-propionic acid]	> 10	631		

Compound	EC50 (human S1P3 receptor) [µM]	EC50 (human S1P5 receptor) [nM]	melting point [°C]	further results
CCCc1cc(Cl)c(COc2ccc(C3CN(CCC(=O)O)CCO3)cc2)c(Cl)c1.Cl (stereo not drawn)			101 to 103	
O=C(O)CCN1CCOC(c2ccc(OCCCc3ccccc3)cc2)C1 (stereo not drawn) [Compound 16, 3-{2-[4-(3-Phenyl-propoxy)-phenyl]-morpholin-4-yl}-propionic acid trifluoroacetic acid salt]	3.98	1000		
O=C(O)CCN1CCOC(c2ccc(OCc3c(Cl)cccc3Cl)c(C(F)(F)F)c2)C1 (stereo not drawn) [Compound 131, 3-{2-[4-(2,6-Dichloro-benzyloxy)-3-trifluoromethyl-phenyl]-morpholin-4-yl}-propionic acid trifluoroacetic acid salt]	> 10	1000		
Cl.O=C(O)CCN1CCOC(c2ccc(OCc3c(F)cccc3Cl)cc2C(F)(F)F)C1 (stereo not drawn)			171.5 to 172.5	
CC#Cc1cc(Cl)c(COc2ccc(C3CN(CCC(=O)O)CCO3)cc2)c(Cl)c1.Cl (stereo not drawn)			220 to 224	
Cl.O=C(O)CCN1CCOC(c2cccc(OCc3ccccc3Cl)c2)C1 (stereo not drawn)			233 to 234	
Cc1ccc(COc2ccc(C3CN(CCC(=O)O)CCO3)cc2)c(Cl)c1 (stereo not drawn) [Compound 196, 3-{2-[4-(2-Chloro-4-methyl-benzyloxy)-phenyl]-morpholin-4-yl}-propionic acid hydrochloride]		1000		
CC(C)c1cc(Cl)c(COc2ccc(C3CN(CCC(=O)O)CCO3)cc2)c(Cl)c1.Cl (stereo not drawn)			108 to 110	
Cc1cc(C2CN(CCC(=O)O)CCO2)ccc1OCc1c(F)cccc1Cl (stereo not drawn) [Compound 144, 3-{2-[4-(2-Chloro-6-fluoro-benzyloxy)-3-methyl-phenyl]-morpholin-4-yl}-propionic acid hydrochloride]	> 10	631		
O=C(O)CCN1CCOC(c2ccc(OC3COc4ccccc43)cc2)C1 (stereo not drawn) [Compound 221, 3-{2-[4-(2,3-Dihydro-benzofuran-3-yloxy)-phenyl]-morpholin-4-yl}-propionic acid]			141.5 to 144.5	
Cl.O=C(O)CCN1CCOC(c2cccc(OCc3ccccc3)c2)C1 (stereo not drawn)			222 to 225	
Cl.O=C(O)CCN1CCOC(c2ccc(OCc3c(Cl)cccc3C3CC3)cc2C(F)(F)F)C1 (stereo not drawn)			203 to 204	
Cc1cc(OCc2cccc(OCc3ccccc3)c2)ccc1C1CN(CCC(=O)O)CCO1 (stereo not drawn) [Compound 100, 3-{2-[4-(3-Benzyloxy-benzyloxy)-2-methyl-phenyl]-morpholin-4-yl}-propionic acid]	> 10	3980		
Cl.O=C(O)CCN1CCSC(c2ccc(OCc3ccccc3Cl)cc2)C1 (stereo not drawn)			178 to 182	
O=C(O)CCN1CCOC(c2ccc(C(=O)Nc3c(Cl)cccc3Cl)cc2)C1 (stereo not drawn) [Compound 53, 3-{2-[4-(2,6-Dichloro-phenylcarbamoyl)-phenyl]-morpholin-4-yl}-propionic acid hydrochloride]	> 10	2000		
Cc1cc(OCC2CCC3CC2C3(C)C)ccc1C1CN(CCC(=O)O)CCO1 (stereo not drawn) [Compound 84, 3-{2-[4-(6,6-Dimethyl-bicyclo[3.1.1]hept-2-ylmethoxy)-2-methyl-phenyl]-morpholin-4-yl}-propionic acid]	> 10	3980		
COc1cc(C2CN(CCC(=O)O)CCO2)ccc1OCc1c(F)cccc1Cl.Cl (stereo not drawn)			169 to 171	
CCCCCCCCOc1ccc(C2CN(CCC(=O)O)C(C)(C)CO2)cc1 (stereo not drawn) [Compound 187, 3-[5,5-Dimethyl-2-(4-octyloxy-phenyl)-morpholin-4-yl]-propionic acid hydrochloride]	3.16	794		
CCCCc1ccc(COc2ccc(C3CN(CCC(=O)O)CCO3)c(C)c2)cc1 (stereo not drawn) [Compound 117, 3-{2-[4-(4-Butyl-benzyloxy)-2-methyl-phenyl]-morpholin-4-yl}-propionic acid]	> 10	3980		
3-{2-[4-(2,6-Dichloro-benzyloxy)-phenyl]-morpholin-4-yl}-2,2-di-fluoro-propionic acid triethylammonium salt [Compound 150]				S1P3 pEC50 (human S1P3 receptor): <5.0; S1P5 pEC50 (human S1P5 receptor): 6.2
COc1cc(C2CN(CCC(=O)O)CCO2)ccc1OCc1c(Cl)cccc1Cl.Cl (stereo not drawn)			214 to 216	

— patent US9273017B2, “(Thio)morpholine derivatives as S1P modulators” (ABBVIE BAHAMAS LIMITED, priority 2009, dated 2016)
